Source: patent US20250250227A1, “AMINO LIPID COMPOUND, PREPARATION METHOD THEREFOR, COMPOSITION THEREOF AND USE THEREOF” (SHENZHEN SHENXIN BIOTECHNOLOGY CO., LTD., priority 2022, published 2025)

Columns and labels:
[1] = system: Female BALB/c mice; assay: In vivo safety of hEPO mRNA lipid nanoparticle: serum alanine aminotransferase (ALT) enzyme activity; conditions: hEPO mRNA LNP, 300 μL IV, serum 12 h after injection; FIG. 1
Description: A human erythropoietin mRNA (hEPO mRNA)-encapsulating lipid nanoparticle formulation was prepared according to the method as described in Experimental Example 1, with replacing the luciferase mRNA (Fluc mRNA) with human erythropoietin mRNA (hEPO mRNA), with a concentration of hEPO mRNA of 0.2 g/L, a mass ratio of hEPO mRNA to Lipid of 1:10, a particle size of 90-130 nm, and an encapsulation efficiency of above 90% or higher.
(§1) Animal preparation: Female BALB/c mice of 6-8 weeks old were selected and raised in an SPF grade breeding room. Animal testing was conducted in strict accordance with the guidelines of national health institutions and animal ethics requirements.
In vivo Delivery: Prior to injection of the test LNP formulations, the LNP formulations were gently and repeatedly inverted to thoroughly mix the formulation samples. A corresponding amount of the formulation samples were aspirated with a 1 ml insulin syringe, and the LNP formulations were injected by tail vein injection (IV), with 5 mice per formulation. Each mouse was injected with 300 μL of the human erythropoietin mRNA (hEPO mRNA)-encapsulating lipid nanoparticle formulation.
Serum acquisition: Blood samples of mice were collected 12 h after injection, placed in tubes without anticoagulants, and naturally coagulated at room temperature for 30-60 min, and then centrifuged at a speed of 3500 rpm for 10 min to obtain the supernatant, which was the serum.
The detection of alanine transaminase was carried out according to instructions of the kit (Nanjing Jiancheng Bioengineering Institute, Catalog. No. C009-2-1), and a standard curve was made using the standard provided in the kit. D-PBS was used in the experiment, which was purchased from Sangon Biotech (Shanghai) Co., Ltd., Catalog No. E607009-0600.
The method of detection of enzyme activity of alanine aminotransferase (ALT) in serum of the mice is as follows:
• (1) Enzymatic reaction: 0, 2, 4, 6, 8 and 10 μL of […] sodium pyruvate standard solution were sequentially added to 5 μL of 0.1 mol/L phosphate buffer, and the volume was supplemented to 25 μL with a matrix solution, and repeatedly aspirating and spitting with a pipette for mixing well; • (2) Addition reaction: 20 μL 2,4-dinitrophenylhydrazine solution was added to all reaction wells in (1), mixed by aspirating and spitting, and then placed in an incubator at 37° C. to react for 20 min; • (3) Developing: 200 μL of 0.4 mol/L NaOH solution was added to all reaction wells in (2) to stop the reaction, mixed by aspirating and spitting, and incubated at room temperature for 15 min. The OD value of each well was measured at 510 nm in a microplate reader; and • (4) Data processing of standard curve: The corresponding absolute OD value for each well was obtained by subtracting the OD value for 0 μL well from the measured OD value for each well, the corresponding ALT Karmen units being 0, 28, 57, 97, 150 and 200 U/L, respectively. The standard curve was obtain by taking the absolute OD value as the abscissa and the corresponding Karmen unit as the ordinate.
• (1) Reagent preparation: an ALT matrix solution was placed in an incubator at 37° C. for preheating; • (2) Enzymatic reaction: 5 μL diluted serum was aspirated and added to a 96-well plate, then 20 μL matrix solution was added to the corresponding sample well and mixed by repeatedly aspirating and spitting to avoid bubbling, and then placed in an incubator at 37° C. for 30 min; • (3) Addition reaction: 20 μL 2,4-dinitrophenylhydrazine was added to all reaction wells in (2), mixed by aspirating and spitting, and then reacted in an incubator at 37° C. for 20 min; • (4) Developing: 200 μL of 0.4 mol/L NaOH solution was added to all reaction wells in (3) to stop the reaction, mixed by aspirating and spitting, and then incubated at room temperature for 15 min. […]

[2] = system: Female BALB/c mice; assay: IFN-γ Elispot cellular immunity test, spleen lymphocytes of mice immunized with IN002.5.1 mRNA LNP; type: in vivo; conditions: 50 μL IM, spleen on 7th day after immunization, FIG. 2-4
Description: An IN002.5.1 mRNA-encapsulating lipid nanoparticle formulation was prepared according to the method as described in Experimental Example 1, with replacing the luciferase mRNA (Fluc mRNA) with IN002.5.1 mRNA, with a concentration of IN002.5.1 mRNA of 0.2 g/L, a mass ratio of IN002.5.1 mRNA to Lipid of 1:10, a particle size of 80-130 nm, and an encapsulation efficiency of 90% or higher.
The sequence of IN002.5.1 mRNA is one obtained by replacing all uracil (u) in SEQ ID NO. 1 with N1-methylpseudouridine. Of note is that the t (thymine) in the RNA sequence, SEQ ID NO. 1, in the Sequence Listing is actually u (uracil), according to the WIPO Standard ST. 26 for nucleotide or amino acid sequence listing.
as §1
Immunization of mice: Prior to injection of the test LNP formulations, the LNP formulations were gently and repeatedly inverted to thoroughly mix the formulation samples. A corresponding amount of the formulation samples were aspirated with a 1 ml insulin syringe, and the LNP formulations were injected by intramuscular injection (IM) […], with 8 mice per formulation. Each mouse was injected with 50 μL of the IN002.5.1 mRNA encapsulating lipid nanoparticle formulation.
Spleen acquisition: On the 7th day after immunization, 3 to 4 mice from each LNP immunization group were selected and euthanized, and their spleens were acquired in a super clean bench.
Isolation of lymphocytes: The spleens of mice were taken out in a super clean bench. 7 mL of mouse lymphocyte separation solution was added to a 6-well cell culture plate. Mouse spleen cells were ground with a syringe piston, and the suspension of the spleen cells was filtered through a cell screen and immediately transferred to a 15 mL centrifuge tube. […] RPMI 1640 medium was slowly added with keeping the liquid interface distinct. After centrifugation at 800 g with a horizontal rotor at room temperature for 30 minutes, a clear stratification can be visible. The lymphocyte layer was aspirated, then added with 10 mL RPMI 1640 medium, and inverted for washing. The cells were collected by centrifugation at 250 g for 10 min at room temperature, and the red blood cells were lysed. After completing lysis of red blood cells, the supernatant was poured, and the cells were resuspended in culture medium and counted.
Addition of stimulant and culture of lymphocyte: RPMI-1640 medium containing 10% fetal bovine serum was used to activate the pre-coated plate. After standing at room temperature for at least 30 min, the medium was removed, and a cell suspension at adjusted concentration was added ([…]). The medium used to resuspend the cells was used as a background negative control. 10 μL positive stimulant working solution (PMA+Ionomycin (dissolved in DPBS) was added to a positive control well; […] medium used to resuspend the cells was added to a negative control well; 10 µL/well of a peptide library diluted with RPMI 1640 was added to experimental wells. After all samples and the stimulant were added, the plate was covered, incubated in an incubator with 5% CO2 at 37° C. for 16-24 h.
Elispot detection after culture: The cells and the culture medium in the wells were dumped, and the wells were lysed with 200 μL/well of ice-cold deionized water at 4° C. for 10 min. The liquid in the wells were shaken out, and the wells were washed five times with PBS buffer. The wells were incubated with 100 μL/well of 1 μg/ml detection antibody for 2 h at room temperature; and after washing the plate 5 times with PBS, the wells were incubated with 100 μL/well of 1000-fold diluted enzyme labeled avidin (Streptavidin-HRP) for 1 h at room temperature. […]

[3] = Preparation and characterisation of mRNA-encapsulating lipid nanoparticle (encapsulation efficiency, particle size); type: physicochemical; conditions: LNP encapsulating Fluc mRNA; Lipid:DSPC:CHO-HP:M-DMG-2000 48:10:40.5:1.5
Description: A specified amount of Fluc mRNA stock solution, 0.2 M sodium acetate buffer, and DEPC water were added to a container, and mixed well to obtain a water phase;
The amino lipid compound of the present disclosure, a helper lipid, a structural lipid, and a PEG-lipid were separately dissolved in absolute ethanol to prepare respective solutions at concentrations of 20 mg/mL, 10 mg/mL, 20 mg/mL, and 25 mg/mL, respectively. The above four solutions were pipetted at a molar ratio of Lipid:DSPC:CHO—HP:M-DMG-2000 of 48:10:40.5:1.5, and mixed well to prepare an alcohol phase. • (2) Encapsulation: The water phase and the alcohol phase were injected into a microfluidic chip at a flow rate of water phase: alcohol phase=12 mL/min: 4 mL/min by using a microfluidic preparation instrument (MPE-L2), and encapsulation was carried out at a flow rate of water phase: alcohol phase=9 mL/min: 3 mL/min to obtain mRNA-encapsulating lipid nanoparticle (mRNA-LNP). • (3) Dialysis: The product of step (2) was loaded in a dialysis bag and placed in a Tris Buffer-8% sucrose solution for replacement to remove ingredients such as residual ethanol, unassembled lipids. Dialysis was conducted for 2 h with magnetic stirring at room temperature and under protection from light (dialysate was replaced every 1 hour). • (4) The product of step (3) was sterilized by passing through a […] microporous membrane, and then packaged.
Lipid nanoparticle formulations encapsulating Fluc mRNA were prepared, with a concentration of Fluc mRNA of 0.2 g/L, a mass ratio of Fluc mRNA to Lipid of 1:10, a particle size of 80-130 nm, and a encapsulation efficiency of 85% or higher.
The encapsulation efficiency of the lipid nanoparticle encapsulating luciferase mRNA (Fluc mRNA) with a representative amino lipid compound and the fluorescence expression intensity induced by the same are shown in Table 4, with the amino lipid compound 118 as a control. […]

[4] = system: Female BALB/c mice; assay: Performance evaluation of in vivo delivery of Fluc mRNA lipid nanoparticle (IVIS, body and organs); conditions: Fluc mRNA LNP; for Liver (fluorescence expression intensity) / Spleen (fluorescence expression intensity): 75 μL IV; for Liver (fluorescence expression intensity) / Spleen (fluorescence expression intensity) / Total flux (fluorescence expression intensity) / (Spleen/Total Flux) * 100%: 6 hours after injection; for Liver (fluorescence expression intensity) / Spleen (fluorescence expression intensity) / Total flux (fluorescence expression intensity): IVIS; for Total flux (fluorescence expression intensity): 75 μL tail vein injection (IV); for (Spleen/Total Flux) * 100% / Multiple of spleen delivery/total delivery to amino lipid compound 118: IV; for Multiple of spleen delivery/total delivery to amino lipid compound 118: relative to amino lipid compound 118
Description: as §1
In vivo Delivery: prior to injection of the test LNP formulations, the LNP formulations were gently and repeatedly inverted to thoroughly mix the formulation samples. A corresponding amount of the formulation samples were aspirated with a 1 ml insulin syringe, and the LNP formulations were injected by tail vein injection (IV), with 3 mice in duplicate per formulation. Each mouse was injected with 75 μL of the luciferase mRNA (Fluc mRNA)-encapsulating lipid nanoparticle formulation prepared in Experimental Example 1.
6 hours after injection of LNP formulations, mice were injected with 200 μL D-Luciferin luciferase developing substrate (Catalog No. 122799; Manufacturer: Perkin Elmer). After the substrate was injected, the mice were anesthetized with isoflurane inhalation, and the injection time of luciferase developing substrate was recorded.
The encapsulation efficiency of the lipid nanoparticle encapsulating luciferase mRNA (Fluc mRNA) with a representative amino lipid compound and the fluorescence expression intensity induced by the same are shown in Table 4, with the amino lipid compound 118 as a control.
The multiple of spleen delivery/total delivery of fluorescence expression intensity induced by lipid nanoparticle encapsulating luciferase mRNA (Fluc mRNA) with a representative amino lipid compound to amino lipid compound 118 is shown in Table 5.

Structure (SMILES) | ALT enzyme activity (Karmen unit) compared to ALC0315 and SM-102 [1] | Cellular immunity effect (IFN-γ Elispot) compared to ALC0315 [2] | Encapsulation efficiency [3] | Liver (fluorescence expression intensity) [4] | Spleen (fluorescence expression intensity) [4] | Total flux (fluorescence expression intensity) [4] | (Spleen/Total Flux) * 100% [4] | Multiple of spleen delivery/total delivery to amino lipid compound 118 [4]
CCCCCCC(CCCCCC)OC(=O)CCCCCCCCC(CCCCCCCCC(=O)OC(CCCCCC)CCCCCC)OC(=O)N(CCCCCC(=O)OCCCC)CCCN(C)C [Compound 252] | significantly lower ALT enzyme activity | – | – | – | – | – | – | –
CCCCCCC(CCCCCC)OC(=O)CCCCCCCCC(CCCCCCCCC(=O)OC(CCCCCC)CCCCCC)OC(=O)N(CCCCC(=O)OCCCC)CCCN(C)C [Compound 255] | significantly lower ALT enzyme activity | – | – | – | – | – | – | –
CCCCCCC(CCCCCC)OC(=O)CCCCCCCCC(CCCCCCCCC(=O)OC(CCCCCC)CCCCCC)OC(=O)N(CCCCC(=O)OC(C)CC)CCCN(C)C (stereo not shown) [Compound 302] | – | better cellular immunity effect | – | – | – | – | – | –
CCCCCCC(CCCCCC)OC(=O)CCCCCCCCC(CCCCCCCCC(=O)OC(CCCCCC)CCCCCC)OC(=O)N(CCCC(=O)OC(C)C)CCCN(C)C [Compound 307] | – | better cellular immunity effect | – | – | – | – | – | –
CCCCCCC(CCCC)COC(=O)CCCCCCCCC(CCCCCCCCC(=O)OCC(CCCC)CCCCCC)OC(=O)N(CCCC(=O)OCCCCC)CCCN(C)C (stereo not shown) [Compound 371] | – | – | 93.17% | 2.92E+08 | 2.36E+07 | 1.12E+09 | 2.11% | 6.20
CCCCCCOC(=O)CCN(CCCN(C)C)C(=O)OC(CCCCCCCCC(=O)OCC(CCCC)CCCCCC)CCCCCCCCC(=O)OCC(CCCC)CCCCCC (stereo not shown) [Compound 372] | – | – | 92.17% | 1.67E+08 | 8.59E+06 | 5.43E+08 | 1.58% | 4.65
CCCCCCCOC(=O)CCN(CCCN(C)C)C(=O)OC(CCCCCCCCC(=O)OCC(CCCC)CCCCCC)CCCCCCCCC(=O)OCC(CCCC)CCCCCC (stereo not shown) [Compound 373] | – | – | 92.01% | 9.15E+07 | 6.93E+06 | 4.77E+08 | 1.45% | 4.27
CCCCCCCOC(=O)CN(CCCN(C)C)C(=O)OC(CCCCCCCCC(=O)OCC(CCCC)CCCCCC)CCCCCCCCC(=O)OCC(CCCC)CCCCCC (stereo not shown) [Compound 375] | – | – | 94.18% | 1.55E+08 | 7.63E+06 | 4.06E+08 | 1.88% | 5.53
